Results taken from patent publication US20140308357A1, “MELATONIN-BASED SOLUTIONS AND POWDERS FOR THEIR PREPARATION” (Eratech S.R.L., priority 2011, published 2014).
Converted amounts (≈) assume the structure as drawn.

Legend:
[1] = Osmolality and pH of solutions for administration in Water/PEG 400; format: physicochemical
[2] = cited from earlier work
[3] = Dissolution speed of the powder for reconstitution in water/PEG-400 (80/20); format: physicochemical; details: 25° C.
Protocol: The entire test was conducted in temperature conditions of 25° C.
After 1 minute of manual stirring the two solutions were left to settle for 1 minute.
After 1 minute of sedimentation, the supernatant solution was sampled by taking 1 ml of it and analysing it according to the HPLC method described previously.

[4] = Solubility of the powder for reconstitution (saturated solution, filtered, HPLC); format: physicochemical; details: thermodynamic from solid
Protocol: Following the preparation of a saturate solution of the powders obtained, the same solution was filtered with a […] membrane and the filtered solution obtained was analysed by HPLC according to the method described previously.

[5] = Water/PEG 400 ratio 70/30, melatonin 18 mg/ml
[6] = Water/PEG 400 ratio 75/25, melatonin 14 mg/ml
[7] = Water/PEG 400 ratio 80/20, melatonin 10 mg/ml
[8] = Water/PEG 400 ratio 85/15, melatonin 7 mg/ml
[9] = Water/PEG 400 ratio 90/10, melatonin 5 mg/ml

Structure (SMILES): COc1ccc2[nH]cc(CCNC(C)=O)c2c1 [Melatonin raw material, Melatonin]
- Osmolality [1, 5]: 1310 mOsm/Kg
- pH [1, 5]: 5.2
- Osmolality [1, 6]: 1014 mOsm/Kg
- pH [1, 6]: 5.2
- Osmolality [1, 7]: 754 mOsm/Kg
- pH [1, 7]: 5.2
- Osmolality [1, 8]: 530 mOsm/Kg
- pH [1, 8]: 5.2
- Osmolality [1, 9]: 335 mOsm/Kg
- pH [1, 9]: 5.2
- Concentration of melatonin in plasma ([2]; endogenous, circulates bound to albumin): 0.01 to 0.3 ng/mL
- Bioavailability ([2]; in vivo): approximately 15%
- Clearance following first passage through the liver ([2]; in vivo): 90%
- Half-life ([2]; in vivo): 30 to 60 min
- Visual inspection of the preparation ([3]; 30 mg melatonin in 3 ml water/PEG-400 (80/20), 1 minute manual stirring, after 1 minute settling): presence of undissolved particulate
- Concentration of melatonin in the supernatant solution ([3]; 30 mg melatonin in 3 ml water/PEG-400 (80/20), 1 minute stirring and 1 minute sedimentation): 7100 µg/mL
- Concentration of melatonin in solution ([3]; water/PEG-400 (80/20), after 10 minutes of stirring): 7900 µg/mL
- solubility ([4]; purified water, water, Water (Table 3a)): 1.8 mg/mL (≈ 7.75 mM)
- solubility ([4]; purified water, water, Water (Table 3b)): 1.7 mg/mL (≈ 7.32 mM)
- solubility ([4]; water/PEG-200 (75/25), aqueous with cosolvent or surfactant or cyclodextrin, Water-PEG 75/25, PEG 200): 10.5 mg/mL (≈ 45.2 mM)
- solubility ([4]; water/PEG-350 (75/25), aqueous with cosolvent or surfactant or cyclodextrin, Water-PEG 75/25, PEG 350): 16.9 mg/mL (≈ 72.8 mM)
- solubility ([4]; water/PEG-400 (75/25), aqueous with cosolvent or surfactant or cyclodextrin, Water-PEG 75/25, PEG 400): 14.5 mg/mL (≈ 62.4 mM)
- solubility ([4]; water/PEG-400 (80/20), aqueous with cosolvent or surfactant or cyclodextrin, Water-PEG-400 ratio 80-20): 11.1 mg/mL
- solubility ([4]; water/PEG-400 (90/10), aqueous with cosolvent or surfactant or cyclodextrin, Water-PEG-400 ratio 90-10): 5 mg/mL
- solubility ([4]; water/ethanol (70/30), aqueous with cosolvent or surfactant or cyclodextrin, Water-Ethanol ratio 70-30): 19.7 mg/mL
- solubility ([4]; water/ethanol (75/25), aqueous with cosolvent or surfactant or cyclodextrin, Water-Ethanol ratio 75-25): 14.2 mg/mL
- solubility ([4]; water/ethanol (80/20), aqueous with cosolvent or surfactant or cyclodextrin, Water-Ethanol ratio 80-20): 8.2 mg/mL
- solubility ([4]; water/ethanol (90/10), aqueous with cosolvent or surfactant or cyclodextrin, Water-Ethanol ratio 90-10): 3.7 mg/mL
